Results from US10071042B2, “External dermatological agent for anti-ageing” (Hayashibara Co., Ltd., priority 2014, dated 2018).
Like-named read-outs stand apart in the source and are kept apart here. Marks after values point to notes of the source that are not given here.

How the values were obtained:
[1] = tested on: normal human epidermal keratinocytes; assay: Production level of cornified envelope, absorbance 310 nm (Experiments 1-2 and 7); format: cell-based; conditions: for Production level (%) of cornified envelope: control = 100%
Protocol: Normal human epidermal keratinocytes were cultured similarly as in Experiment 1-1, except for adding the test substances listed in Table 2 at prescribed concentrations to the cells. The resulting cultured cells were washed once with phosphate buffered saline (PBS), followed by scrapping off the cells adhered to each culture plate by adding 0.5 mL of PBS to each well of the plates. The cell suspensions thus obtained were added with 10% sodium lauryl sulfate solution in a volume of ¼ of each of the suspension volumes, followed by stirring and freezing the resulting mixtures at −80° C. After thawing, the resulting mixtures were centrifuged at 12,000×g for 15 min, followed by collecting the cell precipitates which were then washed once with phosphate buffered saline containing 2% sodium lauryl sulfate. The resulting mixtures were centrifuged at 12,000×g for 15 min, followed by collecting the cells and suspending the collected cells with phosphate buffered saline containing 2% sodium lauryl sulfate and 20 mM dithiothreitol. The resulting cell suspensions were boiled in a boiling water bath for one hour and measured for absorbance at a wavelength of 310 nm to determine the production level of cornified envelope for each test system added with any of the test substances. A control system was provided similarly as above except for not adding any one of the test substances to the system, and determined for absorbance at a wavelength of 310 nm similarly as in the above to be regarded as 100%. The production level of cornified envelope for each test substance was relatively evaluated based on the following equation. Equation: Production level of cornified envelope (Relative value (%))=[(Absorbance of a sample with any one of test substances)/(Absorbance of Control)]×100
(§1) The experiment was repeated three times, and the data was subjected to the Dunnett's multiple comparisons with Control. The symbol “*” means a level of significance of p<0.01.
(§2) Except for adding the test substances listed in Tables 8 and 9 at respective concentrations shown in the tables, experiments were respectively conducted in accordance with the methods in Experiments 1-2 and 1-3 disclosed in the specification to examine the effect of the combination use of epigallocatechin gallate, which is used as an antioxidant for cosmetics, and sodium adenosine N1-oxide 5′-phosphate on the action of accelerating the cornified-envelope production and the action of enhancing the transglutaminase activity of sodium adenosine N1-oxide 5′-phosphate. A control system was provided and similarly treated as above except for not adding any test substance and was determined for both the increase rates of cornified-envelope production level and the transglutaminase activity, based on the following equations. Equation: Increase rate of cornified envelope production level (%)={[(Absorbance of a sample with any one of test substances)/(Absorbance of control)]×100}−100 Equation: Increase rate of transglutaminase (%)={[(Absorbance of a sample with any one of test substances)/(Absorbance of control)]×100}−100

[2] = tested on: transglutaminase; assay: Transglutaminase activity, fluorescein cadaverine uptake (Experiments 1-3 and 7); format: cell-based, human; conditions: for Transglutaminase activity (%): control = 100%
Protocol: Normal human epidermal keratinocytes were cultured similarly as in Experiment 1-1, except for adding the test substances as listed in Table 3 to respective culture systems. The cultured normal human epidermal keratinocytes were added with 100 μM of fluorescein cadaverine and allowed to stand for four hours. Thereafter, the resulting cells were washed once with phosphate buffered saline and further treated with cold methanol for 10 min for cell fixation. The fixed cells were washed thrice with cold methanol, followed by the addition of phosphate buffered saline. Fluorescein cadaverine taken in the cells via transglutaminase was analyzed with Cell Imaging Station, commercialized by Molecular Probes Life Technology, France, and the analyzed fluorescent intensities were regarded as transglutaminase activities. There was provided a control system similarly as in the above, except for not adding any of the test substances. The transglutaminase activity of each test substance was evaluated as a relative value determined with the following equation using the fluorescent intensity of the control system being regarded as 100%. Equation: Transglutaminase activity (relative value (%))=[(Fluorescent intensity of a sample with any one of test substances)/(Fluorescent intensity of control)]×100
as §1, §2

[3] = tested on: 3T3; assay: TG432: In vitro 3T3 NRU Phototoxicity Test; format: cell-based
Source text: Based on this, external dermal agent containing any of adenosine N1-oxide 5′-phosphate, analogues thereof, and their salts can be said to be safe.

[4] = Photostability under fluorescent lamp, HPLC residual percentage (Experiment 10); format: physicochemical; conditions: fluorescent lamp about 4,000 lux, 28° C.
Protocol: To 25 mg of each of the test substances in Table 13 was added each of Mcllvain buffers adjusted to different pHs to give a total volume of 50 mL and distributed to transparent glass screw bottles (5 mL) with plastic screw caps equal to the number of the test substances by 2.0 mL. Under a fluorescent lamp with about 4,000 lux at 28° C., the glass screw bottles were allowed to lay along. Sodium adenosine N1-oxide 5′-phosphate and 5′-glucosyl adenosine N1-oxide were respectively analyzed on HPLC at the initiation of the test and at eight weeks after initiating the experiment, and at the initiation of the test and at two weeks intervals up to eight weeks after the initiation, followed by taking out one of the bottles for HPLC analysis. The analysis was repeated three times and the average residual percentage of each test substance was calculated based on the area ratio against the peak area for each test substance upon HPLC chromatogram at the initiation of the experiment. […] Equation: Residual percentage (%) of test substance=[(Average peak area after a prescribed time lapse at respective pHs for each test substance)/(Average peak area at the initiation of experiment at respective pHs for each test substance)]×100

[5] = tested on: normal human dermal fibroblasts (NHDF); assay: Number of cells, Alamar Blue (Experiment 4); format: cell-based; conditions: control = 100%
Protocol: To confirm cell proliferation under the above conditions tested, normal human dermal fibroblasts (NHDF), which had been suspended in a Dulbecco's Modified Eagle Medium supplemented with 10% fetal calf serum to give a cell concentration of 2.5×10^5 cells/mL, were placed in 96-well microplates by 0.1 mL/well and cultured for one day. The resulting cells were washed with Dulbecco's phosphate buffered saline and cultured for another two days in a Dulbecco's Modified Eagle Medium supplemented with any one of the test substances in Table 5. The culture supernatants were removed from the microplates, to which were then added 0.2 mL/well of a dilution of “Alamar Blue” diluted with the same culture medium as used in the above by 10 folds to react with the cells at 37° C. for two hours, followed by measuring the fluorescent intensity of the cells at an excitation wavelength of 544 nm and a fluorescent wavelength of 590 nm and obtaining the variation of the number of cells with the addition of any one of the test substances based on the fluorescent intensity of a control system, which had been treated similarly as in the above except for not adding any of the test substances, being regarded as 100%.
The experiment was repeated three times, and the data was compared to that of control with the Dunnett's multiple comparisons test. The symbol “*” means a level of significance of p<0.01.

[6] = pH 4 to 5, at the initiation of experiment
[7] = pH 6 to 7, at the initiation of experiment
[8] = pH 8 to 9, at the initiation of experiment
[9] = 15 μM, single use, increase over control

3′-α-Glucosyladenosine [reference compound]
Production level (%) of cornified envelope ([1]; 800 μM): 104.2% | Transglutaminase activity (%) ([2]; 400 μM): 269%

3′-α-glucosyl adenosine N1-oxide [3′-α-Glucosyladenosine N1-oxide]
Production level (%) of cornified envelope ([1]; 200 μM): 141.4* % | optical toxicity [3]: no optical toxicity | Transglutaminase activity (%) ([2]; 100 μM): 300%

5′-α-Glucosyladenosine [reference compound]
Transglutaminase activity (%) ([2]; 400 μM): 33%

5′-α-glucosyl adenosine N1-oxide [5′-α-Glucosyladenosine N1-oxide]
Residual percentage (%) [4, 6]: 100.0% | Residual percentage (%) ([4]; pH 4 to 5, eight weeks): 9.8% | Residual percentage (%) ([4]; pH 4 to 5, eight weeks, listed as 5′-glucosyl adenosine N1-oxide): about 10% | Residual percentage (%) ([4]; pH 4 to 5, four weeks): 27.3% | Residual percentage (%) ([4]; pH 4 to 5, six weeks): 9.7% | Residual percentage (%) ([4]; pH 4 to 5, two weeks): 51.7% | Residual percentage (%) [4, 7]: 100.0% | Residual percentage (%) ([4]; pH 6 to 7, eight weeks): 34.3% | Residual percentage (%) ([4]; pH 6 to 7, four weeks): 57.7% | Residual percentage (%) ([4]; pH 6 to 7, six weeks): 40.8% | Residual percentage (%) ([4]; pH 6 to 7, two weeks): 79.1% | Residual percentage (%) [4, 8]: 100.0% | Residual percentage (%) ([4]; pH 8 to 9, eight weeks): 24.0% | Residual percentage (%) ([4]; pH 8 to 9, four weeks): 47.8% | Residual percentage (%) ([4]; pH 8 to 9, six weeks): 35.4% | Residual percentage (%) ([4]; pH 8 to 9, two weeks): 70.7% | Production level (%) of cornified envelope ([1]; 600 μM): 148.8* % | optical toxicity [3]: no optical toxicity | Transglutaminase activity (%) ([2]; 400 μM): 404* %

Nc1ncnc2c1ncn2[C@@H]1O[C@H](COP(=O)(O)O)[C@@H](O)[C@H]1O [Adenosine 5′-phosphate, reference compound]
Production level (%) of cornified envelope ([1]; 400 μM): 136.5% | Transglutaminase activity (%) ([2]; 400 μM): 244% | Number of cells (%) ([5]; 10 μM): 101.0% | Number of cells (%) ([5]; 40 μM): 102.0% | Number of cells (%) ([5]; 100 μM): 99.0%

Nc1c2ncn([C@@H]3O[C@H](CO)[C@@H](O)[C@H]3O)c2nc[n+]1[O-] [Adenosine N1-oxide, adenosine N1-oxide]
Residual percentage (%) [4, 6]: 100.0% | Residual percentage (%) ([4]; pH 4 to 5, eight weeks): 24.6% | Residual percentage (%) ([4]; pH 4 to 5, eight weeks, listed as adenosine N1-oxide): about 25% | Residual percentage (%) ([4]; pH 4 to 5, four weeks): 47.2% | Residual percentage (%) ([4]; pH 4 to 5, six weeks): 25.2% | Residual percentage (%) ([4]; pH 4 to 5, two weeks): 68.8% | Residual percentage (%) [4, 7]: 100.0% | Residual percentage (%) ([4]; pH 6 to 7, eight weeks): 66.2% | Residual percentage (%) ([4]; pH 6 to 7, four weeks): 81.6% | Residual percentage (%) ([4]; pH 6 to 7, six weeks): 71.3% | Residual percentage (%) ([4]; pH 6 to 7, two weeks): 90.6% | Residual percentage (%) [4, 8]: 100.0% | Residual percentage (%) ([4]; pH 8 to 9, eight weeks): 63.1% | Residual percentage (%) ([4]; pH 8 to 9, four weeks): 77.2% | Residual percentage (%) ([4]; pH 8 to 9, six weeks): 68.2% | Residual percentage (%) ([4]; pH 8 to 9, two weeks): 83.7% | Production level (%) of cornified envelope ([1]; 25 μM): 178.7* % | Production level (%) of cornified envelope ([1]; 25 μM, listed as adenosine N-1 oxide): about 180% | optical toxicity [3]: no optical toxicity | Transglutaminase activity (%) ([2]; 20 μM): 632* % | Transglutaminase activity (%) ([2]; 20 μM, listed as adenosine N1-oxide): about 630% | Number of cells (%) ([5]; 1 μM): 99.0% | Number of cells (%) ([5]; 4 μM): 98.0% | Number of cells (%) ([5]; 10 μM): 94.0%

Nc1ncnc2c1ncn2[C@@H]1O[C@H](CO)[C@@H](O)[C@H]1O [Adenosine, reference compound]
Production level (%) of cornified envelope ([1]; 400 μM): 101.7% | Transglutaminase activity (%) ([2]; 400 μM): 360%

Nc1c2ncn([C@@H]3O[C@H](COP(=O)([O-])O)[C@@H](O)[C@H]3O)c2nc[n+]1[O-].[Na+] [Sodium adenosine N1-oxide 5′-phosphate, sodium adenosine N1-oxide 5′-phosphate]
Residual percentage (%) [4, 6]: 100.0% | Residual percentage (%) ([4]; pH 4 to 5, eight weeks): 93.0% | Residual percentage (%) [4, 7]: 100.0% | Residual percentage (%) ([4]; pH 6 to 7, eight weeks): 88.8% | Residual percentage (%) [4, 8]: 100.0% | Residual percentage (%) ([4]; pH 8 to 9, eight weeks): 96.9% | Increase rate of cornified envelope formation level (%) [1, 9]: 2.8% | Production level (%) of cornified envelope ([1]; 25 μM): 178.7* % | Production level (%) of cornified envelope ([1]; 25 μM, listed as adenosine N1-oxide 5′-phosphate): about 180% | optical toxicity ([3]; OECD test guideline TG432): no optical toxicity | Increase rate of transglutaminase activity (%) [2, 9]: 0.0% | Transglutaminase activity (%) ([2]; 20 μM): 569* % | Transglutaminase activity (%) ([2]; 20 μM, listed as sodium adenosine N1-oxide 5′-phosphate): about 570% | Number of cells (%) ([5]; 1 μM): 104.0% | Number of cells (%) ([5]; 4 μM): 104.0% | Number of cells (%) ([5]; 10 μM): 101.0%
